Read-outs that look alike come from different tables or passages of the source.
Assays:
[1] = Ocular bioavailability following topical ocular administration of 2% isotonic or in situ gel-forming solution (Examples 5, 6); type: in vivo, New Zealand White rabbit; settings: rabbit
Excerpt: The objective of this study was to determine the pharmacokinetics of mecamylamine, administered either as an isotonic solution (prepared as in Example 3) or in situ gel-forming solution (as prepared in Example 4), in the plasma, vitreous humor and retina of the eyes when applied topically to the surface of the eye.
The study comprised 2 groups (N=4/group; 8 rabbits total) of male NZW rabbits each weighing approximately 2-3 kg and obtained from Kralek Farms (Turlock, Calif.). […] For both groups, samples of the vitreous(≧0.1 ml) were withdrawn at 6 time points (one withdrawal per eye): pre-dose, 30 min, 1 (sacrifice), 3, 6, 12, and 24 (sacrifice) hr. At all time points, only duplicate vitreous fluid samples (each coming from different eye from different animals) were collected in order to minimize pain and damage to rabbit eyes.
Blood for plasma(≧0.5 ml) and intra-vitreal fluid (˜0.1 ml) were collected at 0, 30, 60 min from each animal with sacrifice for 2 animals/group at 60 minutes. […]
A 0.5 mg/mL stock of mecamylamine hydrochloride USP in DMSO was prepared and used as the working standard to produce the calibration standards for quantification of the mecamylamine content in various samples collected as described above. […]
Each tissue sample collected was weighed. […] The samples were analyzed using LC/MS/MS and quantified using the calibration standards prepared in plasma as described above.

[2] = Single- and multiple-dose rabbit ocular pharmacokinetics (Example 7); type: in vivo, Dutch-belted rabbit
Experimental: Dutch-belted male rabbits (Covance, Denver, Pa.) aged 2.5 to 4.5 months and with weights of 1.5 to 2.5 kg were given a 3% solution of mecamylamine hydrochloride (polymer-free solution) by ocular installation either as a single dose or 6 doses (50 microliters per dose), approximately 1.5 hours apart. Serial blood samples (approximately 0.5 mL each) were collected by direct venipuncture from a marginal ear vein into a blood collection tube containing EDTA as anticoagulant from various animal groups at 0.5 hours post dose, 2 hours post dose. A terminal blood sample was obtained from all animals just prior to euthanasia. Animals were euthanized 1, 3 or 6 hours after administration of the drug solution. Ocular tissues (listed in Table 7) were obtained after euthanasia.
The concentration of mecamylamine in plasma and ocular tissues was measured using an LC MS/MS method as described in Example 6.

[3] = Toxicokinetics in the 14-day dog study (Example 13); type: in vivo; settings: for Cmax: both sexes, beagle, dog, in vivo, topical or ocular
Experimental: An ophthalmic saline solution formulation containing 3% mecamylamine hydrochloride (HCl) was evaluated for toxicological effects and drug pharmacokinetics in healthy beagle dogs. The drug solution or a matching vehicle control was administered 2, 4 and […] for 14 or 15 consecutive days to both eyes of Beagle dogs.
Animals were dosed 2, 4 or 6 times a day for 14 consecutive days for males or 15 consecutive days for females. The dose (50 microliters) was administered to the globe of the eye on each dosing occasion. Mortality and clinical observations were evaluated twice daily. Ocular observations were evaluated according to the Draize scoring system twice daily (Draize et al., (1944) J. Pharm. Exp. Ther. 82: 377-390, incorporated by reference herein). All eyes from all animals had ophthalmology examinations using an indirect ophthalmoscope and slit lamp and were evaluated according to McDonald and Shadduck (McDonald & Shadduck (1977) Advances in Modern Toxicology 4: 162 (New York, Wiley), hereby incorporated by reference herein) prior to treatment initiation and 1-2 hours following the final dosing of Groups 1 and 4 on Days 7 and 14. Approximate pupil size was determined for each animal prior to study initiation, at least 30 minutes following the final daily dose on Days 1 and 8 and prior to terminal sacrifice on Days 15/16. Electroretinograms (ERG) were obtained from all animals prior to treatment initiation and on Day 14. Blood samples for evaluation of hematology, coagulation and clinical chemistry parameters were collected prior to treatment initiation and prior to terminal sacrifice on Days 15/16. Selected tissues were harvested at necropsy, selected organs weighed, and selected tissues from all animals were evaluated microscopically.

[4] = rabbit, 3% solution, 1 hour to 6 hours after dosing

CNC1(C)C2CCC(C2)C1(C)C (stereo not shown) [mecamylamine, N-2,3,3-tetramethylbicyclo(2.2.1)heptan-2-amine]
retinal/choroidal tissue:plasma ratio, topical compared to systemic administration [1]: at least 40 fold | levels of mecamylamine in erythrocytes (red blood cells) versus plasma ([1]; topical ocular): comparable | Kp ([2]; male, Dutch-belted, retina/choroid and plasma, topical, 50 µL of 3% solution per dose, rabbit, 3% solution, read-out: ratio of mecamylamine concentration in the retina/choroid to the plasma): 37 to 147 | Plasma levels ([2]; rabbit, 3% solution): ≤ 50 ng/mL | Mean peak levels in aqueous humor [2, 4]: 310 to 920 ng/mL | Mean peak levels in the retina/choroid [2, 4]: 171 to 510 ng/g | mecamylamine concentration in the retina/choroid after 6 hourly doses relative to single dose ([2]; rabbit, 1 hour after 6 hourly doses): five-fold | mean maximum concentration of mecamylamine detected in plasma ([2]; rabbits, topical ocular, single dose and multi-dose studies): less than 70 ng/mL | accumulation ratios ([3]; Beagle dog, Day 13 versus Day 1, any group): ≤ 1.14 | Cmax ([3]; 3 mg/eye/day, Group 2 (2 doses/eye/day, 3 mg/eye/day), read-out: Cmax, mean): 49 ng/mL | Cmax ([3]; 3 mg/eye/day, Group 2, read-out: Cmax, highest overall value): 185 ng/mL | Cmax ([3]; 6 mg/eye/day, Group 3 (4 doses/eye/day, 6 mg/eye/day), read-out: Cmax, mean): 44 ng/mL | Cmax ([3]; 9 mg/eye/day, Group 4 (6 doses/eye/day, 9 mg/eye/day), read-out: Cmax, mean): 64 ng/mL
